Data set [1] addresses T1, ATP-binding cassette sub-family C member 2 (Rattus norvegicus, UniProt Q63120). In words: TP_TRANSPORTER: biliary excretion in SD rat. The class given is functional, organism-based, Sprague-Dawley, Bile. To be noted: in vivo.
In data set [2] the target is T1, ATP-binding cassette sub-family C member 2. In words: TP_TRANSPORTER: biliary excretion in EHBR rat. To be noted: in vivo. The class given is functional, organism-based, Bile.

T1 sequence (Q63120 whole entry): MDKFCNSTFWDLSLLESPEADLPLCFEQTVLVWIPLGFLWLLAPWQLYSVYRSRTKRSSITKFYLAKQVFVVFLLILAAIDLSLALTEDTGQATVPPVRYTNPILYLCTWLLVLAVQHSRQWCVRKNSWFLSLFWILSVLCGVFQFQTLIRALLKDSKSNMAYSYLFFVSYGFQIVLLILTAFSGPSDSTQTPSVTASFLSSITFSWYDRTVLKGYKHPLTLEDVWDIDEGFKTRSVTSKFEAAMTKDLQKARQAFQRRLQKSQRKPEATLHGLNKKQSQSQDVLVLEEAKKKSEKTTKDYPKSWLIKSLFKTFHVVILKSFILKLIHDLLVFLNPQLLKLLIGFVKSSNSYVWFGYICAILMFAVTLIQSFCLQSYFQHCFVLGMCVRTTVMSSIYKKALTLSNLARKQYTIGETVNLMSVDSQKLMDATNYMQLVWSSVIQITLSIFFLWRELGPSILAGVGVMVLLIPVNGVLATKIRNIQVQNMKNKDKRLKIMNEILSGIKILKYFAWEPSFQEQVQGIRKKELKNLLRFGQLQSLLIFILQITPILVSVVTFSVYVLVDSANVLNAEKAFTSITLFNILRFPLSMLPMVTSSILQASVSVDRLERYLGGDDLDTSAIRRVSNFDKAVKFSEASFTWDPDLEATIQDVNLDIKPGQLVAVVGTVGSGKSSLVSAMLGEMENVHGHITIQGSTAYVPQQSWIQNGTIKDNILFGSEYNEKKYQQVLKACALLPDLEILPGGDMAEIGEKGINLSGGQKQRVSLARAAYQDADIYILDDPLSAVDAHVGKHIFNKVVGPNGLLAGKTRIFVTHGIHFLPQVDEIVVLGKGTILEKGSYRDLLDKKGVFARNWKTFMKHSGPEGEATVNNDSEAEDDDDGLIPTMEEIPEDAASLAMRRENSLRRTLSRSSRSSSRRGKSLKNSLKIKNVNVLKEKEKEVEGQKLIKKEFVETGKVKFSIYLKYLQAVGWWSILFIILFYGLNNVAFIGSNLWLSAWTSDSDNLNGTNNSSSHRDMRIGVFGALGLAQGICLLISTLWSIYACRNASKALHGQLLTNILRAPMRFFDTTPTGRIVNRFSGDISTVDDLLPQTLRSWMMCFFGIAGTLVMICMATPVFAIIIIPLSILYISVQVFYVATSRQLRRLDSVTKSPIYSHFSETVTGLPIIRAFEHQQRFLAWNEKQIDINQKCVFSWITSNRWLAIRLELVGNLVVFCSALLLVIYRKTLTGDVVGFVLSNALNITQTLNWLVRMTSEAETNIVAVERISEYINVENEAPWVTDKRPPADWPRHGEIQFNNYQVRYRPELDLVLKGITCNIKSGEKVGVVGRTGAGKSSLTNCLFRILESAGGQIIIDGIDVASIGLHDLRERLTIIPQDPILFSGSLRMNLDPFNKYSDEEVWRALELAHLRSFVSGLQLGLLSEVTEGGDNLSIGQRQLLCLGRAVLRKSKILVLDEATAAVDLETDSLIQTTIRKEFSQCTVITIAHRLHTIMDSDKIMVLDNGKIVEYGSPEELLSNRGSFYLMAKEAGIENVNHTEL

With `CS(=O)(=O)O.Cc1c(N2C[C@@H](N)C3(CC3)C2)c(F)c(N)c2c(=O)c(C(=O)O)cn(C3CC3)c12`, the Activity entry in data set [1] and in data set [2] was “substrate [+]” each time.

The values are drawn from ChEMBL document CHEMBL2073887, “Hepatobiliary transport kinetics of HSR-903, a new quinolone antibacterial agent” (Drug Metab Dispos, 1998).
